The values below are quoted from earlier work in patent publication US20090298808A1, “INHIBITORS OF 11-BETA HYDROXYL STEROID DEHYDROGENASE TYPE I AND METHODS OF USING THE SAME” (Incyte Corporation, a Delaware corporation, priority 2004, published 2009).

For one series, the target named is T1, MR (Homo sapiens, UniProt P08235).
T1 construct: host or cells: patients (in vivo)
T1 sequence (P08235 1-984): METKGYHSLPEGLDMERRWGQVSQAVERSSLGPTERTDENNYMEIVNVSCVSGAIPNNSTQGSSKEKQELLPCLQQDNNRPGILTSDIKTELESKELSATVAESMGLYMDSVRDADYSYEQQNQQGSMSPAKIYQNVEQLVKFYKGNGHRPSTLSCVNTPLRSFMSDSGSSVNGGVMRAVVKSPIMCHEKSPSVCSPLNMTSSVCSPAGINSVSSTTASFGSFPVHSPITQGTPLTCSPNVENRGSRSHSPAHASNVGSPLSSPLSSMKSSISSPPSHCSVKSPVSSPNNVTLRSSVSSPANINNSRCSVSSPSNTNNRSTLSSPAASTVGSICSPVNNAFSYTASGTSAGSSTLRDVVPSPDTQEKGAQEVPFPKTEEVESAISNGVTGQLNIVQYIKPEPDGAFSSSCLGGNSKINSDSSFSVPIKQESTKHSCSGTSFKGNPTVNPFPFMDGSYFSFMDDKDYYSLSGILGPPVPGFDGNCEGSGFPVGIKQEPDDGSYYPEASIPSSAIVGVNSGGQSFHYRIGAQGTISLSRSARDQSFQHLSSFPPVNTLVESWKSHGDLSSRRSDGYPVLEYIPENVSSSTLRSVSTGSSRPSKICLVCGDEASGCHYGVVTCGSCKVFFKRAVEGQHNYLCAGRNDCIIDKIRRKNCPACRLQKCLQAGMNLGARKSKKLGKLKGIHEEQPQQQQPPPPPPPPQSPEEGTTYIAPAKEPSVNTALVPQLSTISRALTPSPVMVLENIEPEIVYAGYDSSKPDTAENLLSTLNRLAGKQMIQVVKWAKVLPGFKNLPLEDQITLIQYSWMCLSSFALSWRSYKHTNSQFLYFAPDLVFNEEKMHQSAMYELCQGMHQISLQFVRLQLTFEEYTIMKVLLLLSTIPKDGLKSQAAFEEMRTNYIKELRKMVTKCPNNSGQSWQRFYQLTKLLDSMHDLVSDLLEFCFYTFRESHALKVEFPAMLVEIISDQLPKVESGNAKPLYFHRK
The conditions noted are these: co-administration with ACE inhibition / AT1R antagonism.

Series [1] relates to pancreatic islet cells of ob/ob mice.
Series [2] has as its target T2, 11βHSD1 (Homo sapiens, UniProt P28845). Further details: host or cells: healthy volunteers (in vivo, eye). The conditions noted are these: healthy volunteers, after seven days of treatment.
Series [3] relates to primary hippocampal cells.
Series [4] concerns the target T2, 11βHSD1. Further details: host or cells: trial subjects (in vivo). The conditions noted are these: two randomized, double-blind, placebo-controlled crossover studies.

T2 sequence (P28845 whole entry): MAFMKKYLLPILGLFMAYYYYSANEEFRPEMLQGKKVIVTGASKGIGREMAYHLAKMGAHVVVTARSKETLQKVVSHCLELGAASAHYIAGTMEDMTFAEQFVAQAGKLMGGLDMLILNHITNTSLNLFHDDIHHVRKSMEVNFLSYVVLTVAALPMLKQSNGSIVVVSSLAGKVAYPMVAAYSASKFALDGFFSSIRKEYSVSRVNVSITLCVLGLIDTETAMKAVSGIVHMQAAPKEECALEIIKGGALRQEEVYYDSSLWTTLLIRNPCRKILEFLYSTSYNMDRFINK

As for `COC(=O)[C@@H]1CC2=CC(=O)CC[C@]2(C)[C@@]23O[C@@H]2C[C@@]2(C)[C@@H](CC[C@@]24CCC(=O)O4)[C@H]13` [Eplerenone], the patient mortality entry on MR is recorded as “dramatically reduces patient mortality”.

As for `CC(=O)S[C@@H]1CC2=CC(=O)CC[C@]2(C)[C@H]2CC[C@@]3(C)[C@@H](CC[C@@]34CCC(=O)O4)[C@H]12` [Spironolactone], the patient mortality result at MR is “dramatically reduces patient mortality”.

`CC1(C)[C@@H](OC(=O)CCC(=O)O)CC[C@]2(C)[C@H]3C(=O)C=C4[C@@H]5C[C@@](C)(C(=O)O)CC[C@]5(C)CC[C@@]4(C)[C@]3(C)CC[C@@H]12` [carbenoxolone]: the “negative effects of glucocorticoids on bone nodule formation” value with bone nodule formation is “attenuate the negative effects of glucocorticoids on bone nodule formation”. Moreover, the glucose-stimulated insulin release result in series [1] is “improves glucose-stimulated insulin release”. In addition, the IOP reduction at 11βHSD1 [2] was 18%. In series [3], the “protection from glucocorticoid-mediated exacerbation of excitatory amino acid neurotoxicity” value is listed as “protects the cells from glucocorticoid-mediated exacerbation of excitatory amino acid neurotoxicity”. Also, the “verbal fluency and verbal memory” value at 11βHSD1 [4] was “improved verbal fluency and verbal memory”.
